Converted amounts (≈) assume the structure as drawn.
Assays:
[1] = system: five different human cancer cells (lung (A549), ovary (SK-OV-3), skin (SK-MEL-2), central nervous system (XF498), and large intestine (HCT)); conditions: range over A549, SK-OV-3, SK-MEL-2, XF498, HCT; cited from earlier work
[2] = system: female Wistar rats; test: Ovariectomized rat osteoporosis model, bone histomorphometry of proximal tibia; format: in vivo; conditions: two months, mean value, p < 0.001 vs OVX; for Bone volume % (BV/TV): proximal tibia head trabecular bone, OVX group 12.50%, Sham 29.50%; for Erosion surface (ESBS, %): proximal tibia, OVX group 5.8%, Sham 4.7%
Text: (§1) The purpose of this example is to show the potency of bakuchiol in treating osteoporosis, wherein ovary of a female rat is removed to stimulate osteoporosis caused by estrogen deficiency.
(§2) The female Wistar rats of 16 weeks old (unless specified in the other experiment description) were obtained from the stock reared by the Animal breeding center, National Scientific Council in Taipei. These rats were grouped by weights matched in order to distribute the physiological response variation from rats evenly into each group. These rats were grouping as follows: • Baseline group fed with no drug added food (n=8) • Sham operation group fed with no drug added food (Sham) (n=10) • Ovariectomy operation group fed with no drug added food (OVX) (n=8) • Ovariectomy operation group fed with Drug A (5 mg/kg) added food (OVX+A) (n=9) • Ovariectomy operation group fed with Drug B (15 mg/kg) added food (OVX+B) (n=9)
Ovariectomy (removal of ovaries) operation: Ovariectomy was induced using a protocol similar to that described by Wronski et al (Wronski et al, Endocrinology, 123(2), 681-86 (1988)).
During the experiments, the rats were housed in hanging grid cages in groups of two at 21°C with a 12 hours dark cycle. Food (Rat-mouse diet III, adequate in 1 % of calcium content and 1.2 % of phosphate content, Purina, USA) was administered by paired feeding between the experimental and control groups. Pair-feeding was carried out by calculating the average amount of food intake in the Sham group. So give the same amount of food to the OVX , OVX+A (5 mg/kg), OVX+B (15 mg/kg) group animals the following day. These animals were fed with a period of two months except for the baseline group which were killed on the very day of doing ovariectomy or sham operation. Rats of OVX+A and OVX+B groups were fed with the usual food chuck but added certain amount of compound A and B in it respectively. Water was given ad libitum to all rats.
The test drug was weighted according to dose of 5 mg/kg and 15 mg/kg, and added into the ususal food chuck powder and mixed with 10% starch paste. After fully mixed, these chuck powder were made into mass manually and dried by air flow oven. The food with added drug to rats was performed by single blind method.
These labeling and bone histomorphometry assessment were done based on standard procedure in bone research (Lin et al, Calcif. Tissue Int., 67, 373-377 (2000)). Specimen were prestained with Villanueva bone stain, then […] and embedded in London resin. Undecalcified sections of 7 µm thick were cut using Jung-K microtome (Leica Ltd, USA) and treated with Villanueva stain for observation under light microscopy. Seven µm thick unstained sections were prepared for fluorescent microscopy and assessed with program Osteomeasure (3.0 version, Atlanta, USA). […]

[3] = system: female Wistar rats; test: Ovariectomized rat osteoporosis model, apparent bone density measurement of tibia (Archimedes principle); format: in vivo; conditions: two months, mean value, OVX group 1.549, Sham 1.589, p < 0.05 vs OVX
Text: as §1, §2
Ovariectomy (removal of ovaries) operation: Ovariectomy was induced using a protocol similar to that described by Wronski et al (Wronski et al, Endocrinology, 123(2), 681-86 (1988)). […]
The whole tibia and femur were stripped off attached muscles and ligaments after sacrifice. […] The weight of bone measured in the air was marked as W-air. […] The apparent bone density was calculated as [W-air/(W-air minus W-water)] […]

[4] = system: MDA-MB231; test: Cytotoxicity assay (CCK-8, net growth % vs control); format: cell-based; conditions: Homo sapiens, MDA-MB-231; MDA-MB231 (estrogen receptor negative), 48 hours incubation; read-out: 50% inhibition of cell growth concentrations of test compounds (IC50)
Text: (§3) Materials: DMEM (medium), RPMI (medium), L-glutamine, penicillin, streptomycin and FBS (fetal bovine serum) were obtained from Gibco (NY, USA). Culture plasticware was purchased from Coming (MA, USA). […] All other chemicals used were of reagent grade and were purchased from Sigma or E. Merck (Germany).
(§4) Cell lines and cell cultures: The human breast cancer cell lines T47D and MDA-MB231 were obtained from American Type Culture Collection (ATCC). Of both cancer cells, T47D is estrogen receptor positive, and MDA-MB231 is estrogen receptor negative. Cells were cultured at 37°C in RPMI medium containing 10% charcoal-dextran stripped fetal bovine serum for T47D cells and in DMEM medium containing 10% charcoal-dextran stripped fetal bovine serum for MDA-MB231 cells with 5% CO2. The cell proliferation was determined by counting the viable cells with trypan blue exclusion.
(§5) Cytotoxicity assay: Dispense 198 µl of cell suspension (20,000 cells for T47D per well and 10,000 cell for MDA-MB231 per well) in a 96-well plate and pre-incubate the plate for 24 hours in an incubator at 37°C with humidified 5% CO2. […] After plate was incubated for 48 hours in the incubator, media were aspirated of and new media (100 µl) were added and incubated for 1 more hour. […] Measure the absorbance at 450 nm using a ELISA reader. […]

[5] = system: T47D; test: as above; format: cell-based; conditions: Homo sapiens; T47D (estrogen receptor positive), 48 hours incubation; read-out: 50% inhibition of cell growth concentrations of test compounds (IC50)
Text: as §3, §4, §5

Q: What does the source list for `C=C[C@@](C)(/C=C/c1ccc(O)cc1)CCC=C(C)C` [Bakuchiol, bakuchiol]?
A: average inhibitory concentration (IC50) [1]: 10~15 µg/cc; Bone volume % (BV/TV) ([2]; OVX+A group (5 mg/kg) in food): 19.80%; Erosion surface (ESBS, %) ([2]; OVX+A group (5 mg/kg) in food): 5.0%; Bone volume % (BV/TV) ([2]; OVX+B group (15 mg/kg) in food): 20.11%; Erosion surface (ESBS, %) ([2]; OVX+B group (15 mg/kg) in food): 4.8%; Bone apparent density ([3]; OVX+A group (5 mg/kg) in food): 1.582 gm/cm^3; Bone apparent density ([3]; OVX+B group (15 mg/kg) in food): 1.587 gm/cm^3; IC50 [4]: 0.62 µg/mL (≈ 2.42 µM); IC50 [5]: 5 µg/mL (≈ 19.5 µM)
